Literature values as cited in patent publication US20250268985A1, “BCL2 INHIBITOR AND PEPTIDE COMBINATION THERAPY FOR TREATING PROLIFERATIVE DISEASES” (IMMUNE SYSTEM KEY LTD., priority 2022, published 2025).

CN(C)CC[C@H](CSc1ccccc1)Nc1ccc(S(=O)(=O)NC(=O)c2ccc(N3CCN(Cc4ccccc4-c4ccc(Cl)cc4)CC3)cc2)cc1[N+](=O)[O-] [ABT-737, 4-{4-[(4′-Chloro[1,1′-biphenyl]-2-yl)methyl]piperazin-1-yl}-N-(4-{[(2R)-4-(dimethylamino)-1-(phenylsulfanyl)butan-2-yl]ami-no}-3-nitrobenzene-1-sulfonyl)benzamide]
bioavailability after oral administration: not bioavailable
